Experimental data from patent publication US20130123326A1, “ALLOSTERIC BINDING COMPOUNDS” (REGION MIDTJYLLAND, priority 2009, published 2013).

Experiments:
[1] = molecular target: T1, hSERT (Homo sapiens, UniProt P31645); experiment: 5-HT uptake inhibition assay: allo-ligand potentiating effect on uptake inhibition by S-citalopram; format: cell-based; conditions: [3H]5-HT uptake, hSERT-transfected HEK-293-MSR cells; allosteric ligand in the 600 nM range
Protocol: Cell lines expressing the serotonin transporter constitute the most popular in vitro screening system for classical antidepressants, which will inhibit the transporter in uptake of serotonin. The inhibitory potency of the allosteric ligands is determined and expressed as an IC50 value in that a lowering of the IC50 values, when the concentration of the allosteric ligands increases, indicates an add-on inhibitory effect due to the presence of the allosteric ligand.
Transfection of HEK-293-MSR Cell Cultures
For transfections, 0.2 μg of pcDNA3 plasmid vector containing a hSERT cDNA insert and 0.4 μl of Fugene6 (Roche) were used per cm2 of plating area. Plasmid and Fugene6 were mixed with DMEM according to the manufacturer's recommendations. HEK-293-MSR cells were treated with trypsin, suspended in growth media and added to the Plasmid/Fugene6 mixture. Transfected cells were dispensed into white 96-well growth plates (Corning) or 150 mm cell culture discs at 60-80% confluence.
5-HT Uptake Inhibition Assays
Uptake assays were performed 40-50 hours after transfection. […] Cells were lysed in 50 μl MicroScint-20 (Packard), and the radiolabeled serotonin accumulated in the cells was quantified in a Packard TopCounter NXT microplate scintillation counter. Exact [^3H]5-HT reaction concentrations were determined in a Packard TRI-CARB® Liquid scintillation analyzer. […]

[2] = molecular target: T1, hSERT; experiment: Dissociation assay with [3H]-citalopram and hSERT membrane preparations; format: binding
Protocol: Dulbecco's modified Eagle's medium, fetal bovine serum, trypsin, and penicillin/streptomycin were purchased from Invitrogen. Cell culture flasks were from NUNC. MicroScint-20 scintillation mixture was from Packard. [^3H]-Citalopram (85 Ci/mmol) was a gift from H. Lundbeck A/S (Valby, Denmark). Fugene-6 transfection reagent was from Roche Molecular Biochemicals. All chemicals are commercially available. Stock solutions of the allosteric ligands were prepared as 100 mM in EtOH.
The pcDNA3 plasmid vector containing the hSERT gene was used for transfection.
17.5 μl Fugene-6 (Roche Molecular Biochemicals) were mixed with 280 μl Dulbecco's modified Eagle's medium, and incubated at room temperature for 5 minutes. 10 μg of hSERT plasmid were added and the mixture was further incubated at least 15 minutes. […] The cells were plated at 35% confluency in a 150 mm dish, and grown at 37° C. for 64 h. Prior to harvesting the dish was rinsed in PBS. Cells were harvested with a cell scraper in buffer 1 (50 mM Tris-base, 150 mM NaCl, 20 mM EDTA, pH 7.4). After centrifugation (3000 g at 4° C. for 10 mins), cells were suspended and homogenized with an IKA Ultra-Turrax from Rose Scientific Ltd (Edmonton, Alberta, Canada) for 20 s in buffer 1. Membranes were pelleted by ultracentrifugation (12 000 g at 4° C. for 15 min) and homogenization was repeated in buffer 1. Finally, after ultracentrifugation (12000 g, 4° C., 15 min) membranes were resuspended in 1 ml buffer 3 (50 mM Tris-base, 120 mM NaCl, 5 mM KCl, pH 7.4) and stored at −80° C.
Dissociation Assay with [^3H]-Citalopram and Membrane Preparations.
SERT-[^3H]-citalopram complex was formed by incubating hSERT membrane preparation and radioligand in buffer 3 during a 60 min incubation at 4° C. Radioligand was present at a concentration 10 times the Kd value. The time kinetic of dissociation was followed by adding 10 μL complex solution to 250 μL buffer 3 in 96-well plates and incubating subsequently for increasing time intervals at RT. Reactions were terminated by filtration through GF/C glass-fibre filters (Unifilter, Perkin Elmer Life Sciences), preincubated with 40 μl 0.5% polyethyleneimine, using a Pachard Bell cell harvester, and subsequently washed three times with water. Filters were soaked in 40 μl Microscint 20 scintillation liquid (Pachard Bell). Bound radioactivity was determined by direct counting of plates using a Packard Bell microplate scintillation counter. Dissociation curves were obtained by plotting residual binding vs. time of dissociation.
The concentrations of allosteric compound in the dissociation buffer range from 400-0.2 μM.
The relative off-rate is expressed as the off-rate of the radioligand at a given concentration of allosteric compound, normalized to the off-rate of radioligand in the absence of allosteric compound.
The maximum stabilization factor is defined as the estimated upper plateau of the sigmoidal response curve, and describes how many folds the off-rate of bound radioligand from SERT can be attenuated in the presence of increasing concentrations of allosteric compound in the dissociation buffer.

T1 sequence (P31645 whole entry): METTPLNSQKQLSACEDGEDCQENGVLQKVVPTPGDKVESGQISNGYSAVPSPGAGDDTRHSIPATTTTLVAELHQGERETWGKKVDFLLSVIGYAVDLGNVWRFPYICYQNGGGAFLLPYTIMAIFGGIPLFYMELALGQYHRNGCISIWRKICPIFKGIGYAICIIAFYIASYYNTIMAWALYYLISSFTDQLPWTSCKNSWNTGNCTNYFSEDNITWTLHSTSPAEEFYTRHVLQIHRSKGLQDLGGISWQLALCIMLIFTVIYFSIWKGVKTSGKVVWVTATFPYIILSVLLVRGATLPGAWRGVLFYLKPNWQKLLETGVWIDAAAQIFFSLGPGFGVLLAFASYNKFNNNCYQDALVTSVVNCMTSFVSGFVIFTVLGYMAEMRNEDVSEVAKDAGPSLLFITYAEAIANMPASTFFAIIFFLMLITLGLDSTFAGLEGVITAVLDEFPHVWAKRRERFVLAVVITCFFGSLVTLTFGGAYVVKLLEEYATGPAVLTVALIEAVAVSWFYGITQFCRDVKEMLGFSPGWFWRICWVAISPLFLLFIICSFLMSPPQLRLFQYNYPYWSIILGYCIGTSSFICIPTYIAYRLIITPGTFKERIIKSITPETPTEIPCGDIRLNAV

## N#CCSc1cccc2ccccc12 [Example 36, (Naphthalen-1-Ylsulfanyl)-Acetonitrile]
[1]
  reduction of S-citalopram IC50 values (add-on effect): up to 2 fold
[2]; concentration of allosteric compound inducing 50% attenuation of the off-rate of the radioligand from SERT, 10 μM fluoxetine in dissociation buffer, read-out: EC50
  EC50: 700 nM
[2]; estimated upper plateau of sigmoidal response curve: how many folds the off-rate of bound radioligand from SERT can be attenuated, N/A = No activity
  Max. Stability (maximum stabilization factor): 27
